Results published in US8648097B2, “Pyridylaminoacetic acid compound” (Ube Industries, Ltd., priority 2008, dated 2014).
Counter-ions that a name gives are not always drawn. Like-named read-outs stand apart in the source and are kept apart here.

How the values were obtained:
EP2 [1] = target: T1, EP2 (Homo sapiens, UniProt P43116); assay: Measurement of EP2 agonist activity (cAMP in HEK293 cells); assay type: cell-based; set-up: host or cells: HEK293 cells; conditions: amount of cAMP in HEK293 cells (ES-562-C, Euroscreen), 30 minutes
Description: Measurement of EP2 agonist activity was carried out in compliance with the method of Wilson et al. (European Journal of Pharmacology, 501, 49 (2004)). HEK293 cells (ES-562-C, Euroscreen) were cultured in MEM medium containing 10% FBS and seeded at 2×10^4 cells per well of a 96-well plate. On the following day, the medium was replaced with serum-free MEM medium containing 3-isobutyl-1-methylxanthine (final concentration: 500 μM) and after culturing for 30 minutes, a test compound dissolved in dimethylsulfoxide was added followed by allowing to stand undisturbed in a carbon dioxide incubator. After 30 minutes, the amount of cAMP in the cells was measured with a cAMP Biotrak EIA System kit (GE Healthcare Sciences).

EP2 [2] = target: T1, EP2; assay: Measurement of EP2 receptor binding action; set-up: expressed in transfected cells; host or cells: HEK293 cells (membrane fraction)
Description: Measurement of EP2 receptor binding action was carried out in compliance with the method of Abramovitz et al. (Biochimica et Biophysica Acta, 1483, 285 (2000)). […] The membrane fraction was recovered on glass fiber filter paper (GF/B, Whatmann) using a cell harvester (M30R, Brandel), and after washing with buffer solution (10 mM MES-KOH (pH 6.0), 10 mM MgCl2), radioactivity was measured with a liquid scintillation analyzer (2000CA, Packard). […] The dissociation constant (Kd) was calculated by Scatchard analysis. Furthermore, a Compound A shown in the table is a sodium salt of {3-[(4-tert-butylbenzyl)(pyridin-3-ylsulfonyl)aminomethyl]-phenoxy}acetic acid (CP-533,536), which is the compound of Example 14e of WO 99/19300A, and is a control compound having EP2 receptor binding action.

[3] = test system: isolated guinea pig trachea; assay: Isolated guinea pig trachea relaxation test; conditions: 50% relaxation of 0.1 μM carbachol-induced contraction
Description: The tracheas were isolated from guinea pigs (Hartley, male, age 7 to 9 weeks, supplier: Nippon SLC) followed by cutting as rings containing cartilage. Trachea specimens were prepared by cutting the side opposite from the smooth muscle from the rings. The trachea specimens were suspended in Krebs solution containing 3 μM indomethacin while applying a load of 0.5 g, and changes in tension were measured through an FD pickup (TB-611T, Nippon Kohden). The trachea specimens were then warmed to 37° C. and perfused with a mixed gas consisting of 95% oxygen and 5% carbon dioxide. Next, after causing the trachea specimen to contract by adding 0.1 μM carbachol, a test compound dissolved in dimethylsulfoxide was cumulatively added starting at a low concentration to cause the trachea specimen to relax.

[4] = read-out: Ki Value of EP2 Receptor Binding Action

T1 sequence (P43116 whole entry): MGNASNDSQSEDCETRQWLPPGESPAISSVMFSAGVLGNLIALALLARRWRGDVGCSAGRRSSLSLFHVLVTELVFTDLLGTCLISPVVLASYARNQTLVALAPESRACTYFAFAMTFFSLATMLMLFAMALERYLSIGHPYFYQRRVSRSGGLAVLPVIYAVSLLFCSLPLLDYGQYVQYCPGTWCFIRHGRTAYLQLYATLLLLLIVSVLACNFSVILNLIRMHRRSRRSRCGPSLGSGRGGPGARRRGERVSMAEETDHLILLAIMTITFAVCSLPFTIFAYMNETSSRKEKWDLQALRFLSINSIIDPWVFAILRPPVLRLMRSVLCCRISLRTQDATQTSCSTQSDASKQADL

## O=C(O)CNc1cccc(CN(Cc2ccc(-c3nccs3)cc2)S(=O)(=O)c2cccnc2)n1 [Example 11, (6-{(Pyridin-3-ylsulfonyl) [4-(thiazol-2-yl)benzyl]aminomethyl}pyridin-2-ylamino)-acetic acid trifluoroacetate]
EP2 [1]
  EC50: 0.42 nM
EP2 [2]; [4]
  Ki: 3.8 nM

## O=C(O)CNc1cccc(CN(Cc2ccc(C3=NCCS3)cc2)S(=O)(=O)c2ccc(F)cc2)n1 [Example 5, (6-{[4-(4,5-Dihydrothiazol-2-yl)benzyl](4-fluorobenzenesulfonyl)aminomethyl}-pyridin-2-ylamino)acetic acid]
EP2 [1]
  EC50: 1.8 nM
EP2 [2]; [4]
  Ki: 7 nM

## O=C(O)CNc1cccc(CN(Cc2ccc(-c3nccs3)cc2)S(=O)(=O)c2cccnc2)n1 [Example 2, (6-{(Pyridin-3-ylsulfonyl)[4-(thiazol-2-yl)benzyl]aminomethyl}pyridin-2-ylamino)-acetic acid]
[3]; Cavia porcellus
  IC50: 5.7 nM

## O=C(O)CNc1cccc(CN(Cc2cc3ccccc3o2)S(=O)(=O)c2cccnc2)n1 [Example 8, {6-[(Benzofuran-2-ylmethyl)(pyridin-3-ylsulfonyl)aminomethyl]pyridin-2-ylamino}-acetic acid hydrochloride]
EP2 [1]
  EC50: 5.6 nM

## O=C(O)CNc1cccc(CN(Cc2ccc(-n3cccn3)cc2)S(=O)(=O)c2cccnc2)n1 [Example 7, (6-{[4-(Pyrazol-1-yl)benzyl](pyridin-3-ylsulfonyl)aminomethyl}pyridin-2-ylamino)-acetic acid hydrochloride]
EP2 [1]
  EC50: 2.8 nM

## O=C(O)CNc1cccc(CN(Cc2ccc(-n3cccn3)cc2)S(=O)(=O)c2ccccn2)n1 [Example 21, (6-{[4-(Pyrazol-1-yl)benzyl](pyridin-2-ylsulfonyl)aminomethyl}pyridin-2-ylamino)-acetic acid]
EP2 [1]
  EC50: 1.1 nM

## O=C(O)CNc1cccc(CN(Cc2cc3ccccc3s2)S(=O)(=O)c2cccnc2)n1 [Example 13, {6-[(Benzo[b]thiophen-2-ylmethyl)(pyridin-3-ylsulfonyl)aminomethyl]pyridin-2-ylamino}acetic acid hydrochloride]
EP2 [1]
  EC50: 3.4 nM
EP2 [2]; [4]
  Ki: 13 nM

## O=C(O)CNc1cccc(CN(Cc2ccc(-c3ccccn3)cc2)S(=O)(=O)c2cccnc2)n1 [Example 19, (6-{[4-(Pyridin-2-yl)benzyl](pyridin-3-ylsulfonyl)aminomethyl}pyridin-2-ylamino)-acetic acid]
EP2 [1]
  EC50: 2 nM

## O=C(O)CNc1cccc(CN(Cc2ccc(-c3ccc(F)cc3)cc2)S(=O)(=O)c2cccnc2)n1 [Example 9, {6-[(4′-Fluorobiphenyl-4-ylmethyl)(pyridin-3-ylsulfonyl)aminomethyl]pyridin-2-ylamino}acetic acid hydrochloride]
EP2 [2]; [4]
  Ki: 4.4 nM

## COc1ccc2cc(CN(Cc3cccc(NCC(=O)O)n3)S(=O)(=O)c3cccnc3)sc2c1 [Example 15, {6-[(6-Methoxybenzo[b]thiophen-2-ylmethyl)(pyridin-3-ylsulfonyl)aminomethyl]-pyridin-2-ylamino}acetic acid hydrochloride]
[3]; Cavia porcellus
  IC50: 2.6 nM
EP2 [1]
  EC50: 0.96 nM
EP2 [2]; [4]
  Ki: 9.4 nM

## O=C(O)CNc1cccc(CN(Cc2ccc(-c3nccs3)cc2)S(=O)(=O)c2ccc(F)cc2)n1 [Example 4, (6-{(4-Fluorobenzenesulfonyl)[4-(thiazol-2-yl)benzyl]aminomethyl}pyridin-2-ylamino)acetic acid]
[3]
  IC50: 4.5 nM
EP2 [1]
  EC50: 0.29 nM
EP2 [2]; [3H]prostaglandin E2 10 nM, membrane fraction of HEK293 cells expressing human EP2 receptor, read-out: Ki Value of EP2 Receptor Binding Action
  Ki: 2.8 nM

## O=C(O)CNc1cccc(CN(Cc2ccc(-n3cccn3)cc2)S(=O)(=O)c2ccc(F)cc2)n1 [Example 26, (6-{(4-Fluorobenzenesulfonyl)[4-(pyrazol-1-yl)benzyl]aminomethyl}pyridin-2-ylamino)acetic acid]
EP2 [1]
  EC50: 0.78 nM

## O=C(O)CNc1cccc(CN(Cc2ccc(-c3nc(C(F)(F)F)cs3)cc2)S(=O)(=O)c2ccccn2)n1 [Example 25, (6-{(Pyridin-2-ylsulfonyl)[4-(4-trifluoromethylthiazol-2-yl)benzyl]aminomethyl}-pyridin-2-ylamino)acetic acid]
EP2 [1]
  EC50: 7.9 nM

## O=C(O)CNc1cccc(CN(Cc2ccc(-c3cscn3)cc2)S(=O)(=O)c2ccccn2)n1 [Example 16, (6-{(Pyridin-2-ylsulfonyl)[4-(thiazol-4-yl)benzyl]aminomethyl}pyridin-2-ylamino)-acetic acid]
[3]; Cavia porcellus
  IC50: 2.6 nM
EP2 [1]
  EC50: 0.62 nM
EP2 [2]; [4]
  Ki: 3.1 nM

## O=C(O)CNc1cccc(CN(Cc2ccc(-c3nccs3)cc2)S(=O)(=O)c2ccccn2)n1 [Example 3, (6-{(Pyridin-2-ylsulfonyl)[4-(thiazol-2-yl)benzyl]aminomethyl}pyridin-2-ylamino)-acetic acid]
EP2 [1]
  EC50: 0.45 nM
EP2 [2]; [4]
  Ki: 1.9 nM

## CC(C)(C)c1ccc(CN(Cc2cccc(OCC(=O)O)c2)S(=O)(=O)c2cccnc2)cc1 [Compound A, {3-[(4-tert-butylbenzyl)(pyridin-3-ylsulfonyl)aminomethyl]-phenoxy}acetic acid, reference compound]
[3]; Cavia porcellus
  IC50: 86 nM

## O=C(O)CNc1cccc(CN(Cc2ccc(-c3ncccn3)cc2)S(=O)(=O)c2ccccn2)n1 [Example 18, (6-{(Pyridin-2-ylsulfonyl)[4-(pyrimidin-2-yl)benzyl]aminomethyl}pyridin-2-ylamino)-acetic acid hydrochloride]
EP2 [1]
  EC50: 5 nM
EP2 [2]; [4]
  Ki: 9.2 nM

## O=C(O)CNc1cccc(CN(Cc2ccc(-c3ccccc3)cc2)S(=O)(=O)c2ccccn2)n1 [Example 17, {6-[(Biphenyl-4-ylmethyl)(pyridin-2-ylsulfonyl)aminomethyl]pyridin-2-ylamino}acetic acid hydrochloride]
[3]; Cavia porcellus
  IC50: 2.6 nM
EP2 [1]
  EC50: 1.8 nM
EP2 [2]; [4]
  Ki: 1.5 nM

## O=C(O)CNc1cccc(CN(Cc2ccc(-c3ccccc3)cc2)S(=O)(=O)c2cccnc2)n1 [Example 6, {6-[(Biphenyl-4-ylmethyl)(pyridin-3-ylsulfonyl)aminomethyl]pyridin-2-ylamino}acetic acid hydrochloride]
EP2 [1]
  EC50: 2 nM
EP2 [2]
  Ki: 3.8 nM

## O=C(O)CNc1cccc(CN(Cc2cc3ccc(Cl)cc3s2)S(=O)(=O)c2cccnc2)n1 [Example 12, {6-[(6-Chlorobenzo[b]thiophen-2-ylmethyl)(pyridin-3-ylsulfonyl)aminomethyl]pyridin-2-ylamino}acetic acid hydrochloride]
EP2 [1]
  EC50: 0.49 nM
EP2 [2]; [4]
  Ki: 1.1 nM
